Source: the supplement of paper PMC4862054

These molecules were tested on MDA-MB-231 (assay: normalised viability (% of control), CellTiter-Blue; higher = more viable cells (about 100 = DMSO control)). Conditions: 1000 nM; incubation time: 72 h.
In short: (§1)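 384-well plates were pre-loaded with compound in 5 µl medium before 20 µl of breast cancer cell suspension was seeded. Following 72 h incubation, 2.5 µl CellTiter-Blue reagent was added for 2 h at 37 °C. Fluorescence was read at 560/590 nm and plates were normalised to vehicle (100) and a positive kill control (0), checked by Z'-factor. Normalised viability is reported at a single listed concentration of the series.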

First: COc1cccc2c1C(=O)c1c(O)c3c(c(O)c1C2=O)C[C@@](O)(C(C)=O)C[C@@H]3O[C@H]1C[C@H](N)[C@H](O)[C@H](C)O1 [Daunorubicin]
Second: CN1CCN(c2ccc3nc(-c4c(N)c5c(F)cccc5[nH]c4=O)[nH]c3c2)CC1 [Dovitinib]
The normalised viability of the first is lower: 8.64% for the first, 75.2% for the second.

With `O=c1[nH]cc(F)c(=O)[nH]1` [Fluorouracil] the normalised viability was 97.5%.

Same assay, conditions: 10000 nM; incubation time: 72 h

Going from `COC1=CC(c2cc3ccccc3[nH]2)=N/C1=C\c1[nH]c(C)cc1C` [Obatoclax] to `CN1CCN(c2ccc3nc(-c4c(N)c5c(F)cccc5[nH]c4=O)[nH]c3c2)CC1` [Dovitinib], the normalised viability rises from 3.22% to 86.4%.

Going from `CS(=O)(=O)OCCCCOS(C)(=O)=O` [Busulfan] to `O=c1[nH]cc(F)c(=O)[nH]1` [Fluorouracil], the normalised viability falls from 95.4% to 64.7%.

Same assay, conditions: 100000 nM; incubation time: 72 h

For `CS(=O)(=O)OCCCCOS(C)(=O)=O` [Busulfan], the normalised viability was 94.3%.

These molecules were tested on CAL-51 in the same assay as above. Conditions: 0.3 nM; incubation time: 72 h.
In short: as §1

Going from `COc1ncc(-c2ccc3nccc(-c4ccnnc4)c3c2)cc1NS(=O)(=O)c1ccc(F)cc1F` to `CCS(=O)(=O)c1cccc(-c2cc(C(=O)NC3CCN(C)CC3)c(C)c3[nH]c4ncc(C)cc4c23)c1` [TAK-901], the normalised viability rises from 93.7% to 98%.

First: Cn1c(=O)c(F)c(Nc2ccc(I)cc2F)c2c(=O)n(C[C@@H](O)CO)cnc21 [TAK-733]
Second: COc1cccc2c1C(=O)c1c(O)c3c(c(O)c1C2=O)C[C@@](O)(C(C)=O)C[C@@H]3O[C@H]1C[C@H](N)[C@H](O)[C@H](C)O1 [Daunorubicin]
The normalised viability of the first is higher: 107% for the first, 97.1% for the second.

Same assay, conditions: 3 nM; incubation time: 72 h

Compared with `COc1ncc(-c2ccc3nccc(-c4ccnnc4)c3c2)cc1NS(=O)(=O)c1ccc(F)cc1F`, `CCS(=O)(=O)c1cccc(-c2cc(C(=O)NC3CCN(C)CC3)c(C)c3[nH]c4ncc(C)cc4c23)c1` [TAK-901] is higher in normalised viability: 75.3% for the first, 92.8% for the second.

First: Cn1c(=O)c(F)c(Nc2ccc(I)cc2F)c2c(=O)n(C[C@@H](O)CO)cnc21 [TAK-733]
Second: CN1CCN(c2ccc3nc(-c4c(N)c5c(F)cccc5[nH]c4=O)[nH]c3c2)CC1 [Dovitinib]
The normalised viability of the first is lower: 88.7% for the first, 119% for the second.

Going from `COC1=CC(c2cc3ccccc3[nH]2)=N/C1=C\c1[nH]c(C)cc1C` [Obatoclax] to `COc1cccc2c1C(=O)c1c(O)c3c(c(O)c1C2=O)C[C@@](O)(C(C)=O)C[C@@H]3O[C@H]1C[C@H](N)[C@H](O)[C@H](C)O1` [Daunorubicin], the normalised viability falls from 107% to 92.9%.

Molecule `O=c1[nH]cc(F)c(=O)[nH]1` [Fluorouracil] has a normalised viability of 105%.

Same assay, conditions: 10 nM; incubation time: 72 h

Compared with `COc1ncc(-c2ccc3nccc(-c4ccnnc4)c3c2)cc1NS(=O)(=O)c1ccc(F)cc1F`, `CCS(=O)(=O)c1cccc(-c2cc(C(=O)NC3CCN(C)CC3)c(C)c3[nH]c4ncc(C)cc4c23)c1` [TAK-901] is higher in normalised viability: 56.5% for the first, 92.1% for the second.

Compared with `Cn1c(=O)c(F)c(Nc2ccc(I)cc2F)c2c(=O)n(C[C@@H](O)CO)cnc21` [TAK-733], `COc1cccc2c1C(=O)c1c(O)c3c(c(O)c1C2=O)C[C@@](O)(C(C)=O)C[C@@H]3O[C@H]1C[C@H](N)[C@H](O)[C@H](C)O1` [Daunorubicin] is lower in normalised viability: 90.1% for the first, 88.2% for the second.

Same assay, conditions: 30 nM; incubation time: 72 h

Going from `COC1=CC(c2cc3ccccc3[nH]2)=N/C1=C\c1[nH]c(C)cc1C` [Obatoclax] to `CN1CCN(c2ccc3nc(-c4c(N)c5c(F)cccc5[nH]c4=O)[nH]c3c2)CC1` [Dovitinib], the normalised viability rises from 101% to 113%.

Compared with `CS(=O)(=O)OCCCCOS(C)(=O)=O` [Busulfan], `O=c1[nH]cc(F)c(=O)[nH]1` [Fluorouracil] is lower in normalised viability: 103% for the first, 100% for the second.

Same assay, conditions: 100 nM; incubation time: 72 h

Going from `COC1=CC(c2cc3ccccc3[nH]2)=N/C1=C\c1[nH]c(C)cc1C` [Obatoclax] to `CN1CCN(c2ccc3nc(-c4c(N)c5c(F)cccc5[nH]c4=O)[nH]c3c2)CC1` [Dovitinib], the normalised viability rises from 101% to 107%.

In the case of `O=c1[nH]cc(F)c(=O)[nH]1` [Fluorouracil], the normalised viability is reported as 92.9%.

Same assay, conditions: 300 nM; incubation time: 72 h

`CS(=O)(=O)OCCCCOS(C)(=O)=O` [Busulfan] gave a normalised viability of 95.4%.

Same assay, conditions: 1000 nM; incubation time: 72 h

`CS(=O)(=O)OCCCCOS(C)(=O)=O` [Busulfan] showed a normalised viability of 94.6%.

The molecules below were run on BT-474 in the same assay as above. Conditions: 1 nM; incubation time: 72 h.
In short: as §1

First: COc1ncc(-c2ccc3nccc(-c4ccnnc4)c3c2)cc1NS(=O)(=O)c1ccc(F)cc1F
Second: CCS(=O)(=O)c1cccc(-c2cc(C(=O)NC3CCN(C)CC3)c(C)c3[nH]c4ncc(C)cc4c23)c1 [TAK-901]
The normalised viability of the first is lower: 110% for the first, 131% for the second.

Going from `Cn1c(=O)c(F)c(Nc2ccc(I)cc2F)c2c(=O)n(C[C@@H](O)CO)cnc21` [TAK-733] to `COc1cccc2c1C(=O)c1c(O)c3c(c(O)c1C2=O)C[C@@](O)(C(C)=O)C[C@@H]3O[C@H]1C[C@H](N)[C@H](O)[C@H](C)O1` [Daunorubicin], the normalised viability falls from 123% to 118%.

Same assay, conditions: 10 nM; incubation time: 72 h

First: COC1=CC(c2cc3ccccc3[nH]2)=N/C1=C\c1[nH]c(C)cc1C [Obatoclax]
Second: CN1CCN(c2ccc3nc(-c4c(N)c5c(F)cccc5[nH]c4=O)[nH]c3c2)CC1 [Dovitinib]
The normalised viability of the first is lower: 92.6% for the first, 111% for the second.

Molecule `O=c1[nH]cc(F)c(=O)[nH]1` [Fluorouracil] has a normalised viability of 108%.

Same assay, conditions: 100 nM; incubation time: 72 h

Going from `COc1ncc(-c2ccc3nccc(-c4ccnnc4)c3c2)cc1NS(=O)(=O)c1ccc(F)cc1F` to `CCS(=O)(=O)c1cccc(-c2cc(C(=O)NC3CCN(C)CC3)c(C)c3[nH]c4ncc(C)cc4c23)c1` [TAK-901], the normalised viability rises from 19.2% to 107%.

First: Cn1c(=O)c(F)c(Nc2ccc(I)cc2F)c2c(=O)n(C[C@@H](O)CO)cnc21 [TAK-733]
Second: COc1cccc2c1C(=O)c1c(O)c3c(c(O)c1C2=O)C[C@@](O)(C(C)=O)C[C@@H]3O[C@H]1C[C@H](N)[C@H](O)[C@H](C)O1 [Daunorubicin]
The normalised viability of the first is higher: 121% for the first, 80.3% for the second.

`CS(=O)(=O)OCCCCOS(C)(=O)=O` [Busulfan] gave a normalised viability of 107%.

Same assay, conditions: 1000 nM; incubation time: 72 h

Compared with `COc1ncc(-c2ccc3nccc(-c4ccnnc4)c3c2)cc1NS(=O)(=O)c1ccc(F)cc1F`, `CCS(=O)(=O)c1cccc(-c2cc(C(=O)NC3CCN(C)CC3)c(C)c3[nH]c4ncc(C)cc4c23)c1` [TAK-901] is higher in normalised viability: 6.63% for the first, 78.6% for the second.

Going from `Cn1c(=O)c(F)c(Nc2ccc(I)cc2F)c2c(=O)n(C[C@@H](O)CO)cnc21` [TAK-733] to `CN1CCN(c2ccc3nc(-c4c(N)c5c(F)cccc5[nH]c4=O)[nH]c3c2)CC1` [Dovitinib], the normalised viability falls from 131% to 97.4%.

First: COC1=CC(c2cc3ccccc3[nH]2)=N/C1=C\c1[nH]c(C)cc1C [Obatoclax]
Second: COc1cccc2c1C(=O)c1c(O)c3c(c(O)c1C2=O)C[C@@](O)(C(C)=O)C[C@@H]3O[C@H]1C[C@H](N)[C@H](O)[C@H](C)O1 [Daunorubicin]
The normalised viability of the first is higher: 36.1% for the first, 17.3% for the second.

`O=c1[nH]cc(F)c(=O)[nH]1` [Fluorouracil] gave a normalised viability of 108%.

Same assay, conditions: 10000 nM; incubation time: 72 h

Compared with `COC1=CC(c2cc3ccccc3[nH]2)=N/C1=C\c1[nH]c(C)cc1C` [Obatoclax], `CN1CCN(c2ccc3nc(-c4c(N)c5c(F)cccc5[nH]c4=O)[nH]c3c2)CC1` [Dovitinib] is higher in normalised viability: 33.4% for the first, 121% for the second.

Going from `CS(=O)(=O)OCCCCOS(C)(=O)=O` [Busulfan] to `O=c1[nH]cc(F)c(=O)[nH]1` [Fluorouracil], the normalised viability falls from 114% to 94%.

Same assay, conditions: 100000 nM; incubation time: 72 h

`CS(=O)(=O)OCCCCOS(C)(=O)=O` [Busulfan] showed a normalised viability of 108%.
